Test results taken from PubChem BioAssay (NCI).
Values joined by “and” are separate entries in the source; they are usually repeats but may differ in a detail not shown here. Equal entries are not always repeated.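 48-hour exposure; five concentrations; linearly interpolated endpoints. GI50: concentration for 50% inhibition of growth. TGI: total growth inhibition.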

Tests used:
Assay in all cases: NCI tumour cell line growth inhibition, 48 h
CAKI-1 renal = test system: CAKI-1 renal
M19-MEL melanoma = test system: M19-MEL melanoma
LOX IMVI melanoma = test system: LOX IMVI melanoma
A549 NSCLC = test system: A549 NSCLC
NCI-H460 lung = test system: NCI-H460 lung
MDA-MB-435 = test system: MDA-MB-435
PC-3 prostate = test system: PC-3 prostate
DU-145 prostate = test system: DU-145 prostate
XF 498 CNS = test system: XF 498 CNS
EKVX NSCLC = test system: EKVX NSCLC
SF-295 CNS = test system: SF-295 CNS
MOLT-4 leukemia = test system: MOLT-4 leukemia
RXF-631 renal = test system: RXF-631 renal
T-47D breast = test system: T-47D breast
786-0 renal = test system: 786-0 renal
HL-60(TB) leukemia = test system: HL-60(TB) leukemia
KM12 colon = test system: KM12 colon
HT29 colon = test system: HT29 colon
MALME-3M melanoma = test system: MALME-3M melanoma
HCT-15 colon = test system: HCT-15 colon
K-562 leukemia = test system: K-562 leukemia
SK-MEL-28 melanoma = test system: SK-MEL-28 melanoma
KM20L2 colon = test system: KM20L2 colon
SW-620 colon = test system: SW-620 colon
CCRF-CEM leukemia = test system: CCRF-CEM leukemia
SF-268 CNS = test system: SF-268 CNS
HCC-2998 colon = test system: HCC-2998 colon
DLD-1 colon = test system: DLD-1 colon
HOP-62 NSCLC = test system: HOP-62 NSCLC
SNB-19 CNS = test system: SNB-19 CNS
RPMI-8226 leukemia = test system: RPMI-8226 leukemia
NCI-H522 lung = test system: NCI-H522 lung
UO-31 renal = test system: UO-31 renal
OVCAR-5 ovarian = test system: OVCAR-5 ovarian
SN12C renal = test system: SN12C renal
U251 CNS = test system: U251 CNS
MDA-MB-231 breast = test system: MDA-MB-231 breast
NCI-H226 lung = test system: NCI-H226 lung
MCF7 breast = test system: MCF7 breast
UACC-62 melanoma = test system: UACC-62 melanoma
IGROV1 ovarian = test system: IGROV1 ovarian
A498 renal = test system: A498 renal
OVCAR-3 ovarian = test system: OVCAR-3 ovarian
RXF 393 renal = test system: RXF 393 renal
TK-10 renal = test system: TK-10 renal
HOP-18 NSCLC = test system: HOP-18 NSCLC
HS 578T breast = test system: HS 578T breast
MDA-N = test system: MDA-N
SF-539 CNS = test system: SF-539 CNS
SK-OV-3 ovarian = test system: SK-OV-3 ovarian
SR leukemia = test system: SR leukemia
UACC-257 melanoma = test system: UACC-257 melanoma
M14 melanoma = test system: M14 melanoma
OVCAR-8 ovarian = test system: OVCAR-8 ovarian
BT-549 breast = test system: BT-549 breast
ACHN renal = test system: ACHN renal
SNB-75 CNS = test system: SNB-75 CNS
HCT-116 colon = test system: HCT-116 colon
SK-MEL-2 melanoma = test system: SK-MEL-2 melanoma
SNB-78 CNS = test system: SNB-78 CNS
OVCAR-4 ovarian = test system: OVCAR-4 ovarian
SK-MEL-5 melanoma = test system: SK-MEL-5 melanoma
NCI-H23 lung = test system: NCI-H23 lung
DMS 114 small cell lung = test system: DMS 114 small cell lung
LXFL 529 NSCLC = test system: LXFL 529 NSCLC
DMS 273 small cell lung = test system: DMS 273 small cell lung

CCC/C(=N\NC(=S)N1CCN(c2ccccn2)CC1)c1ccccn1
GI50 (CAKI-1 renal): 14.3 nM | TGI (CAKI-1 renal): > 5370 nM and 1920 nM | GI50 (M19-MEL melanoma): 53.4 nM | TGI (M19-MEL melanoma): 1320 nM and 1740 nM | TGI (LOX IMVI melanoma): 3190 nM and 1540 nM | GI50 (A549 NSCLC): 32 nM | TGI (A549 NSCLC): > 3160 nM and 1930 nM | TGI (NCI-H460 lung): > 4190 nM | TGI (MDA-MB-435): 1960 nM | TGI (PC-3 prostate): 1260 nM | TGI (DU-145 prostate): 2370 nM | TGI (XF 498 CNS): 302 nM | GI50 (EKVX NSCLC): 30.8 nM | TGI (SF-295 CNS): 6140 nM and 1260 nM | GI50 (MOLT-4 leukemia): 9.25 nM | TGI (MOLT-4 leukemia): > 10000 nM and 1050 nM | GI50 (RXF-631 renal): 38.4 nM | TGI (RXF-631 renal): > 10000 nM and 2340 nM | TGI (T-47D breast): 389 nM | GI50 (786-0 renal): 28.4 nM | TGI (786-0 renal): 1820 nM and 1940 nM | TGI (HL-60(TB) leukemia): 45.8 nM | TGI (KM12 colon): 640 nM and 1520 nM | TGI (HT29 colon): > 5390 nM | TGI (MALME-3M melanoma): 565 nM and 2070 nM | TGI (HCT-15 colon): 1550 nM and 1750 nM | TGI (K-562 leukemia): 110 nM | TGI (SK-MEL-28 melanoma): > 10000 nM and 1470 nM | TGI (KM20L2 colon): 1580 nM | GI50 (SW-620 colon): 11.7 nM | TGI (SW-620 colon): 1360 nM and 1210 nM | GI50 (CCRF-CEM leukemia): < 1 nM | TGI (CCRF-CEM leukemia): 21.6 nM and 28.1 nM | TGI (SF-268 CNS): > 10000 nM and 1850 nM | GI50 (HCC-2998 colon): 46.2 nM | TGI (HCC-2998 colon): 1640 nM and 1590 nM | TGI (DLD-1 colon): 1330 nM and 1340 nM | GI50 (HOP-62 NSCLC): 60.3 nM | TGI (HOP-62 NSCLC): 2920 nM and 1590 nM | TGI (SNB-19 CNS): > 4240 nM and 1700 nM | TGI (RPMI-8226 leukemia): 24 nM and 12.8 nM | TGI (NCI-H522 lung): 307 nM | GI50 (UO-31 renal): 52.9 nM | TGI (UO-31 renal): 3420 nM and 1440 nM | GI50 (OVCAR-5 ovarian): 113 nM | TGI (OVCAR-5 ovarian): > 4360 nM | GI50 (SN12C renal): 339 nM | TGI (SN12C renal): 1940 nM and 1460 nM | TGI (U251 CNS): 480 nM and 1380 nM | TGI (MDA-MB-231 breast): 1910 nM | GI50 (NCI-H226 lung): 136 nM | TGI (NCI-H226 lung): 3670 nM and 1750 nM | TGI (MCF7 breast): 1410 nM | TGI (UACC-62 melanoma): 242 nM and 1430 nM | TGI (IGROV1 ovarian): 2300 nM and 3110 nM | GI50 (A498 renal): 194 nM | TGI (A498 renal): 3930 nM and 1360 nM | TGI (OVCAR-3 ovarian): 615 nM and 1140 nM | GI50 (RXF 393 renal): 10.2 nM | TGI (RXF 393 renal): 2080 nM and 1380 nM | GI50 (TK-10 renal): 1090 nM | TGI (TK-10 renal): > 5420 nM and 2460 nM | GI50 (HOP-18 NSCLC): 31.6 nM | TGI (HOP-18 NSCLC): 680 nM and 1150 nM | TGI (HS 578T breast): 3760 nM | TGI (MDA-N): 1920 nM | GI50 (SF-539 CNS): 150 nM and 145 nM | TGI (SF-539 CNS): 1820 nM and 1110 nM | GI50 (SK-OV-3 ovarian): 1340 nM | TGI (SK-OV-3 ovarian): 2150 nM and 2680 nM | TGI (SR leukemia): 117 nM | TGI (UACC-257 melanoma): 224 nM and 1870 nM | GI50 (M14 melanoma): 122 nM | TGI (M14 melanoma): 318 nM | TGI (OVCAR-8 ovarian): 476 nM and 1500 nM | TGI (BT-549 breast): 1920 nM | GI50 (ACHN renal): 15.6 nM | TGI (ACHN renal): > 3160 nM and 1240 nM | TGI (SNB-75 CNS): 1840 nM and 325 nM | TGI (HCT-116 colon): > 3550 nM | GI50 (SK-MEL-2 melanoma): 190 nM | TGI (SK-MEL-2 melanoma): 312 nM and 1650 nM | GI50 (SNB-78 CNS): 1080 nM | TGI (SNB-78 CNS): > 10000 nM and 4240 nM | GI50 (OVCAR-4 ovarian): 39.8 nM | TGI (OVCAR-4 ovarian): > 5770 nM and 2310 nM | TGI (SK-MEL-5 melanoma): 2410 nM and 1570 nM | TGI (NCI-H23 lung): > 10000 nM and 2430 nM | TGI (DMS 114 small cell lung): 111 nM | TGI (LXFL 529 NSCLC): 75.7 nM and 241 nM | TGI (DMS 273 small cell lung): 1370 nM and 1420 nM
